{"source": "patent US20240139220A1", "about": "“TREATMENT OF HPV INFECTION” (priority 2022, published 2024)", "format_in_all_cases": "physicochemical", "key": {"[1]": {"assay": "Solubility in buffers, water and simulated vaginal fluid at 37° C.", "protocol": "About 4 mg of Compound I Pattern 1 was added into 2 mL of buffer solution.\n(§1) Solubility was tested in five media, pH 3.0 citrate buffer, pH 4.5 acetate buffer, pH 6.8 phosphate buffer, water, simulated vaginal fluid (pH 4.2) at 37° C. for 0.5 h and 2 h.\nThe salt amount used is equivalent to 10 mg anhydrous free base. […] The obtained clear solutions were analyzed by pH meter for pH, and solubility was determined by observation.\nas §1"}, "[2]": {"assay": "Hygroscicity by Dynamic Vapor Sorption (DVS) at 25° C.", "details": "for XRPD after DVS test: 25° C.", "protocol": "Hygroscopicity was investigated by DVS at 25° C., using the following method: […]"}, "[3]": {"assay": "Bulk stability, accelerated storage for one week (HPLC, XRPD)", "details": "for Bulk (XRPD) / Color / Purity, Bulk (HPLC): 1 week", "description": "Bulk stability: Accelerated stability experiments were conducted at 25° C./92% RH and 40° C./75% RH in an open container, 60° C. in a tight container for one week.\nSamples were characterized by XRPD and HPLC and inspected for color change.\nAccelerated stability experiments were conducted at 25° C./92% RH in an open container, at 40° C./75% RH in an open container, and at 60° C. in a tight container for one week."}, "[4]": {"assay": "Polymorph screening by equilibration in solvents at 25° C. (XRPD)"}, "[5]": {"details": "ES1: pH 3.0, 100 mM citrate buffer"}, "[6]": {"details": "ES2: pH 4.5, 50 mM acetate buffer"}, "[7]": {"details": "ES3: pH 6.8, 50 mM phosphate buffer"}, "[8]": {"details": "ES5: Simulated vaginal fluid (pH adjusted by 0.1N NaOH)"}, "[9]": {"details": "BS1: solid state, 25° C./92% RH, open container"}, "[10]": {"details": "BS2: solid state, 40° C./75% RH, open container"}, "[11]": {"details": "BS3: solid state, 60° C., tight container"}}, "data": [{"smiles": "CCOC(=O)C(C)NP(=O)(COCCn1cnc2c(OC)nc(N)nc21)OCc1ccccc1.O=C(O)C=CC(=O)O", "note": "(stereo not drawn) [Compound II Pattern 1]", "values": [{"measurement": "Solubility 0.5 hours", "setting": "[1]; [5]", "result": ">2000", "unit": "µg/mL"}, {"measurement": "Solubility 2 hours", "setting": "[1]; [5]", "result": "> 2000", "unit": "µg/mL"}, {"measurement": "pH of solution, 2 hours", "setting": "[1]; [5]", "result": 2.85}, {"measurement": "Solubility 0.5 hours", "setting": "[1]; [6]", "result": ">2000", "unit": "µg/mL"}, {"measurement": "Solubility 2 hours", "setting": "[1]; [6]", "result": "> 2000", "unit": "µg/mL"}, {"measurement": "pH of solution, 2 hours", "setting": "[1]; [6]", "result": 4.2}, {"measurement": "Solubility 0.5 hours", "setting": "[1]; [7]", "result": ">2000", "unit": "µg/mL"}, {"measurement": "Solubility 2 hours", "setting": "[1]; [7]", "result": "> 2000", "unit": "µg/mL"}, {"measurement": "pH of solution, 2 hours", "setting": "[1]; [7]", "result": 6.47}, {"measurement": "Solubility 0.5 hours", "setting": "[1]; ES4: Water", "result": ">2000", "unit": "µg/mL"}, {"measurement": "Solubility 2 hours", "setting": "[1]; ES4: Water", "result": "> 2000", "unit": "µg/mL"}, {"measurement": "pH of solution, 2 hours", "setting": "[1]; ES4: Water", "result": 2.87}, {"measurement": "Solubility 0.5 hours", "setting": "[1]; [8]", "result": ">2000", "unit": "µg/mL"}, {"measurement": "Solubility 2 hours", "setting": "[1]; [8]", "result": "> 2000", "unit": "µg/mL"}, {"measurement": "pH of solution, 2 hours", "setting": "[1]; [8]", "result": 5.79}, {"measurement": "Desorp. (%) Cycle 1", "setting": "[2]; 0% RH, DVS 25° C.", "result": 0.03, "unit": "%"}, {"measurement": "Desorp. (%) Cycle 2", "setting": "[2]; 0% RH, DVS 25° C.", "result": 0.03, "unit": "%"}, {"measurement": "Sorp. (%) Cycle 1", "setting": "[2]; 0% RH, DVS 25° C.", "result": 0.03, "unit": "%"}, {"measurement": "Sorp. (%) Cycle 2", "setting": "[2]; 0% RH, DVS 25° C.", "result": 0.03, "unit": "%"}, {"measurement": "Desorp. (%) Cycle 1", "setting": "[2]; 10% RH, DVS 25° C.", "result": 0.05, "unit": "%"}, {"measurement": "Desorp. (%) Cycle 2", "setting": "[2]; 10% RH, DVS 25° C.", "result": 0.05, "unit": "%"}, {"measurement": "Sorp. (%) Cycle 1", "setting": "[2]; 10% RH, DVS 25° C.", "result": 0.04, "unit": "%"}, {"measurement": "Sorp. (%) Cycle 2", "setting": "[2]; 10% RH, DVS 25° C.", "result": 0.04, "unit": "%"}, {"measurement": "Desorp. (%) Cycle 1", "setting": "[2]; 20% RH, DVS 25° C.", "result": 0.08, "unit": "%"}, {"measurement": "Desorp. (%) Cycle 2", "setting": "[2]; 20% RH, DVS 25° C.", "result": 0.07, "unit": "%"}, {"measurement": "Sorp. (%) Cycle 1", "setting": "[2]; 20% RH, DVS 25° C.", "result": 0.06, "unit": "%"}, {"measurement": "Sorp. (%) Cycle 2", "setting": "[2]; 20% RH, DVS 25° C.", "result": 0.06, "unit": "%"}, {"measurement": "Desorp. (%) Cycle 1", "setting": "[2]; 30% RH, DVS 25° C.", "result": 0.10, "unit": "%"}, {"measurement": "Desorp. (%) Cycle 2", "setting": "[2]; 30% RH, DVS 25° C.", "result": 0.08, "unit": "%"}, {"measurement": "Sorp. (%) Cycle 1", "setting": "[2]; 30% RH, DVS 25° C.", "result": 0.08, "unit": "%"}, {"measurement": "Sorp. (%) Cycle 2", "setting": "[2]; 30% RH, DVS 25° C.", "result": 0.07, "unit": "%"}, {"measurement": "Desorp. (%) Cycle 1", "setting": "[2]; 40% RH, DVS 25° C.", "result": 0.17, "unit": "%"}, {"measurement": "Desorp. (%) Cycle 2", "setting": "[2]; 40% RH, DVS 25° C.", "result": 0.10, "unit": "%"}, {"measurement": "Sorp. (%) Cycle 1", "setting": "[2]; 40% RH, DVS 25° C.", "result": 0.10, "unit": "%"}, {"measurement": "Sorp. (%) Cycle 2", "setting": "[2]; 40% RH, DVS 25° C.", "result": 0.09, "unit": "%"}, {"measurement": "XRPD after DVS test", "setting": "[2]; 40-0-95-0-40% RH", "result": "No form change"}, {"measurement": "Desorp. (%) Cycle 2", "setting": "[2]; 50% RH, DVS 25° C.", "result": 0.12, "unit": "%"}, {"measurement": "Sorp. (%) Cycle 1", "setting": "[2]; 50% RH, DVS 25° C.", "result": 0.12, "unit": "%"}, {"measurement": "Desorp. (%) Cycle 2", "setting": "[2]; 60% RH, DVS 25° C.", "result": 0.14, "unit": "%"}, {"measurement": "Sorp. (%) Cycle 1", "setting": "[2]; 60% RH, DVS 25° C.", "result": 0.13, "unit": "%"}, {"measurement": "Desorp. (%) Cycle 2", "setting": "[2]; 70% RH, DVS 25° C.", "result": 0.18, "unit": "%"}, {"measurement": "Sorp. (%) Cycle 1", "setting": "[2]; 70% RH, DVS 25° C.", "result": 0.16, "unit": "%"}, {"measurement": "Desorp. (%) Cycle 2", "setting": "[2]; 80% RH, DVS 25° C.", "result": 0.21, "unit": "%"}, {"measurement": "Sorp. (%) Cycle 1", "setting": "[2]; 80% RH, DVS 25° C.", "result": 0.19, "unit": "%"}, {"measurement": "Desorp. (%) Cycle 2", "setting": "[2]; 90% RH, DVS 25° C.", "result": 0.24, "unit": "%"}, {"measurement": "Sorp. (%) Cycle 1", "setting": "[2]; 90% RH, DVS 25° C.", "result": 0.23, "unit": "%"}, {"measurement": "Desorp. (%) Cycle 2", "setting": "[2]; 95% RH, DVS 25° C.", "result": 0.24, "unit": "%"}, {"measurement": "Sorp. (%) Cycle 1", "setting": "[2]; 95% RH, DVS 25° C.", "result": 0.24, "unit": "%"}, {"measurement": "Hygroscopicity", "setting": "[2]; DVS 25° C.", "result": "slightly hygroscopic"}, {"measurement": "XRPD after DVS test", "setting": "[2]; cycle 40-0-95-0-40% RH", "result": "No form change"}, {"measurement": "Water uptake", "setting": "[2]; up to 95% RH, DVS 25° C.", "result": "about 0.2%"}, {"measurement": "Stability after exposure to the three conditions", "setting": "[3]; 25° C./92% RH open, 40° C./75% RH open, 60° C. tight container, one week", "result": "good physical and chemical stability"}, {"measurement": "Bulk (XRPD)", "setting": "[3]; [9]", "result": "No form change"}, {"measurement": "Color", "setting": "[3]; [9]", "result": "No change"}, {"measurement": "Purity, Bulk (HPLC)", "setting": "[3]; [9]", "result": 99.5, "unit": "%"}, {"measurement": "Bulk (XRPD)", "setting": "[3]; [10]", "result": "No form change"}, {"measurement": "Color", "setting": "[3]; [10]", "result": "No change"}, {"measurement": "Purity, Bulk (HPLC)", "setting": "[3]; [10]", "result": 99.4, "unit": "%"}, {"measurement": "Bulk (XRPD)", "setting": "[3]; [11]", "result": "No form change"}, {"measurement": "Color", "setting": "[3]; [11]", "result": "No change"}, {"measurement": "Purity, Bulk (HPLC)", "setting": "[3]; [11]", "result": 99.7, "unit": "%"}, {"measurement": "Initial HPLC purity", "setting": "[3]; before storage", "result": 99.7, "unit": "%"}, {"measurement": "Crystal modification after 1 week equilibration (XRPD)", "setting": "[4]; PS1: IPA", "result": "Compound II Pattern 1"}, {"measurement": "Crystal modification after 1 week equilibration (XRPD)", "setting": "[4]; PS2: Heptanes", "result": "Compound II Pattern 1"}, {"measurement": "Crystal modification after 1 week equilibration (XRPD)", "setting": "[4]; PS3: Water", "result": "Compound II Pattern 1"}, {"measurement": "Crystal modification after 1 week equilibration (XRPD)", "setting": "[4]; PS4: ACN", "result": "Compound II Pattern 2"}, {"measurement": "Crystal modification after 1 week equilibration (XRPD)", "setting": "[4]; PS5: MEK", "result": "Compound II Pattern 3"}, {"measurement": "Crystal modification after 1 week equilibration (XRPD)", "setting": "[4]; PS6: Acetone", "result": "Compound II Pattern 1"}, {"measurement": "Crystal modification after 1 week equilibration (XRPD)", "setting": "[4]; PS7: IPA/heptanes (3/10, v/v)", "result": "Compound II Pattern 1"}, {"measurement": "Crystal modification after 1 week equilibration (XRPD)", "setting": "[4]; PS8: water/ACN (2.9/97.1, v/v)", "result": "Compound II Pattern 2"}, {"measurement": "Crystal modification after 1 week equilibration (XRPD)", "setting": "[4]; PS9: IPA/MTBE (1/3, v/v)", "result": "Compound II Pattern 1"}, {"measurement": "Crystal modification after 1 week equilibration (XRPD)", "setting": "[4]; PS10: EA/toluene (1/3, v/v)", "result": "Compound II Pattern 1"}]}]}
